From US20070134355A1, “Use of plant parts of prickly pear (opuntia) and/or extracts therefrom for the treatment of depressions” (priority 2003, published 2007) come the findings set out here.

“And” between values parts separate entries of the source, which are not always exact repeats. Equal entries are not always repeated.

The subject of this experiment is rats. As to the kind of experiment: forced swimming test in rats. The format is in vivo, rat. Particulars: percentage of inhibition against the control group. The protocol: The antidepressive efficacy has been tested by means of the so-called “forced swimming test” in rats. In this test rats are brought into an impasse during a defined period of five minutes (glass cylinder filled with water). In this test the rats reacted with a rigour referred to as immobilization time, which is interpreted to correlate with a depression. If the rats are treated with an antidepressively effective medicament prior to the test, the immobilization time decreases. Since other psychopharamaca such as anxiolytics or neuroleptics are not efficacious in this test, this test system is well suitable to detect antidepressive effects (R. D. Porsolt et al., Eur. J. Pharmacol. 47, 379-391 (1978); R. D. Porsolt et al., Adv. Pharmacol. Sci., 137-159 (1991)). In order to be efficacious, each of the heretofore known antidepressive agents has to be administered over a period of several days in this test, like in the case of patients. The test animals were treated either with the test substance or with a solvent only for control purposes or with the tricyclic antidepressive agent Imipramine in order to compare the efficacy. Imipramine was selected as the standard comparative substance, because it is one of the strongest antidepressive agents both in psychiatric practice and in animal model.
Tables 1 to 3 exemplarily show the efficacy of three different Opuntia extracts compared to the tricyclic antidepressive agent Imipramine as determined after a treatment period of 9 days. […] In this case, the inhibition was determined already after a treatment period of 3 days. For comparison purposes, the inhibition of the immobility was represented as the percentage of inhibition against the control group in each of the tables.

`CN(C)CCCN1c2ccccc2CCc2ccccc21` [Imipramine]: the Inhibition of immobility reads like this: (dose 20 mg/kg, treatment period of 9 days) 44%; (dose 30 mg/kg, treatment period of 9 days, 30 mg/kg) 64% and 68%. Take `COc1ccc(C(CN(C)C)C2(O)CCCCC2)cc1` (stereo not drawn) [Venlafaxine]: the Inhibition of immobility (dose 100 mg/kg, treatment period of 3 days) amounted to 25%.
